Measurements: patent US11085050B2, “Elite event EE-GH7 and methods and kits for identifying such event in biological samples” (BASF AGRICULTURAL SOLUTIONS SEED, US LLC, priority 2016, dated 2021)

Experiments:
[1] = tested on: plants comprising EE-GH7; assay: Field tolerance of plants comprising EE-GH7 to IFT, glyphosate and combinations; type: in vivo, cotton (Gossypium hirsutum)
Protocol: Tolerance of plants comprising EE-GH7 to IFT, to glyphosate and to combinations thereof, was tested at different locations in the field. […] Currently available data appear to indicate a performance which is at least equal to, or better than the performance of plants comprising EE-GH7 over plants comprising the hppd and epsps chimeric genes as described in WO2013/026740.

[2] = tested on: commercial cotton cultivars comprising EE-GH7; assay: Herbicide tolerance after introgression of EE-GH7 into commercial cotton cultivars; type: in vivo, cotton (Gossypium hirsutum); conditions: EE-GH7 introgressed by repeated back-crossing into commercial cultivars
Description: This confirms the status of event EE-GH7 as an elite event.

SMILES	Tolerance of plants comprising EE-GH7 to the herbicide ([1]; applied post emergence)	Glyphosate tolerance of plants comprising EE-GH7 compared with elite glyphosate tolerant event EE-GH3 ([1]; versus EE-GH3 of WO2007/017186)	Expression of the transgene as determined by herbicide tolerance [2]	Tolerance of plants comprising EE-GH7 to the herbicide ([1]; different locations, IFT alone, in particular applied before emergence)
O=C(O)CNCP(=O)(O)O [glyphosate]	good tolerance	equal to or better than	meets commercially acceptable levels	–
CS(=O)(=O)c1cc(C(F)(F)F)ccc1C(=O)c1cnoc1C1CC1 [IFT, (5-cyclopropyl-4-isoxazolyl)[2-(methylsulfonyl)-4-(trifluoromethyl)phenyl]methanone]	–	–	meets commercially acceptable levels	good tolerance
